For assay [1], the system named is COLO 205 tumor xenografts. Put plainly: Treatment of COLO 205-derived xenografts in vivo. Also noted: species or system nude mouse. The note with it: TB 50 mg/kg, ND 5 mg/kg, intraperitoneal, 3 times per week for 6 weeks. The procedure: Genomic DNAs extracted from TB-treated COLO 205 were examined by gel electrophoresis. […] DNA fragmentation was examined at 24 h after drug treatment. In the lanes 2 and 8, cells received mock treatment as controls. […] Comparisons were subjected to ANOVA followed by Fisher's least significant difference test. […] Since, retardation of the cell cycle and/or activation of the cellular apoptotic response are two major mechanisms preventing tumor growth, we examined the TB effect on the cell cycle and apoptosis occurrence of the solid tumor derived from the implanted COLO 205. The COLO-205 cells (5×10^6) in 0.1 ml RPMI 1640 were injected subcutaneously between the scapulae of each nude mouse (purchased from National Science Council animal center, Taipei). […]

The next assay has as its system COLO 205 cells. Put plainly: DNA fragmentation (DNA ladder) by electrophoresis of genomic DNA. It counts as cell-based, human. Here is the method: Genomic DNAs extracted from TB-treated COLO 205 were examined by gel electrophoresis. […] In FIG. 9, the part of (A) refers to potentiation of ND-induced apoptosis by TB. […] DNA fragmentation was examined at 24 h after drug treatment. In the lanes 2 and 8, cells received mock treatment as controls. The symbols of “M” (in lanes 1 and 7), refer to “DNA size marker.” (B) average tumor volume of DMSO-treated vs. drug-treated nude mice (n=5). (C) tumor weight, (D) animal body weight, and (E) tumor/body weight ratio were measured at the end of experiment. Five samples were analyzed in each group, and values represent the mean±S.E. Comparisons were subjected to ANOVA followed by Fisher's least significant difference test. Significance was accepted at p<0.05. *TB-, ND-, and TB+ND-treated group different from DMSO-treated group. TB+ND-treated group different from TB- or ND-treated group.

In the next assay the test system is malignant cells. The note with it: through abnormal microtubule polymerization; previous study; cited from earlier work.
Assay [2] relates to COLO 205 tumor xenografts. The note with it: previous research; cited from earlier work.
Assay [3] deals with hepatoma and colon cancer cells. The note with it: previous studies of the inventors; cited from earlier work.

For `COC(=O)Nc1nc2ccc(C(=O)c3cccs3)cc2[nH]1` [ND, nocodazole], in assay [1], the “tumor volume vs. vehicle (DMSO plus peanut oil)” value is listed as “reduction in tumor volume”. Besides, the “ND concentration at which DNA ladder patterns characteristic of apoptosis are displayed” value in the assay with COLO 205 cells (ND alone, 24 h after drug treatment) is listed as at least 50 nM. Besides, in the assay on COLO 205 cells (in the presence of 10 μM TB, 24 h), the “ND concentration inducing the DNA ladder pattern” value is recorded as 1 nM.
With `COC1=CC(=O)C[C@@H](C)[C@]12Oc1c(Cl)c(OC)cc(OC)c1C2=O` [griseofulvin], in the assay on malignant cells, the “apoptosis and cell cycle arrest” value is “induced apoptosis and cell cycle arrest at the G2/M phase”. Further, the “effect on anti-cancer activities of nocodazole in vivo” value in assay [2] was “potentiates the anti-cancer activities of nocodazole”.
Consider `CC(=O)N1CCN(c2ccc(OCC3COC(Cn4ccnc4)(c4ccc(Cl)cc4Cl)O3)cc2)CC1` (stereo not drawn) [ketoconazole], for which the “cell cycle arrest and apoptosis” value in assay [3] was “induced cell cycle arrest at the G0/G1 phase of the cell cycle and the occurrence of apoptosis”.

(Values after patent US20050032904A1, “Composition and use of allylamine derivatives” (priority 2003, published 2005).)
